The term IC50 denotes the concentration that gives 50% inhibition.

What all share (type): biochemical
For one assay, the target named is JAK3 (Homo sapiens (Human), UniProt P52333). The assay is described as follows: Purified kinase assay (Z'-LYTE), JAK3. The conditions noted are these: Table 1; read-out: JAK3 IC50. The protocol:
(§1) JAK and TYK2 tyrosine phosphorylation activity is measured using the Z′-LYTE™ Technology developed by Invitrogen Corporation (Carlsbad, Calif.). For JAK1, JAK2 and JAK3 the Z′-LYTE™ Kinase Assay Kit-Tyr6 Peptide (part number PV4122) was used. For TYK2 the Z′-LYTE™ Kinase Assay Kit-Tyr6 Peptide (part number PV3192) was used. The Z′-LYTE™ biochemical assay employs a fluorescence resonance energy transfer (FRET) coupled-enzyme format and is based on the differential sensitivity of phosphorylated and non-phosphorylated peptides to proteolytic cleavage. The assay uses a synthetic peptide substrate that is labeled with a donor fluorophore (coumarin) and an acceptor fluorophore (fluorescein) that make up a FRET pair. In the primary reaction (the Kinase Reaction), the kinase transfers the γ-phosphate of ATP to a single tyrosine residue on the substrate, while the presence of a kinase inhibitor in the primary reaction suppresses phosphorylation. In the secondary reaction (the Development Reaction), a site-specific protease (the Development Reagent) is added. The development buffer quenches the Kinase Reaction, while the protease recognizes and cleaves non-phosphorylated Z′-LYTE™ peptide substrate. Cleavage disrupts FRET between the donor and acceptor fluorophores on the non-phosphorylated substrate, while uncleaved, phosphorylated substrate maintains FRET.
(§2) To test the ability of candidate molecules to inhibit JAK tyrosine phosphorylation activity, molecules are reconstituted in 100% DMSO and serially diluted 1:10 in polypropylene v-bottom microtiter plates. The candidate molecules are then diluted 1:25 into kinase buffer and 2.5 μl transferred into duplicate wells of a 384 well low volume black microtiter assay plate (Corning, USA). The final DMSO concentration in the assay is 1%. The kinase reaction contains 2.5 μl of a candidate molecule, 5 μl of catalytic domain recombinant Kinase enzyme+Tyr peptide substrate (Invitrogen, CA) and ATP (Invitrogen, CA). The kinase reaction is allowed to proceed for 1 hour at room temperature. The protease reaction is initiated by the addition of Development Reagent (Invitrogen, CA). After 1 hour incubation at room temperature the fluorescence is measured using a FlexStation plate reader (Molecular Devices, Sunnyvale, Calif.). The reader settings used are as follows: Fluorescence mode, endpoint, top read, excitation 400 nm, emission 445 nm and 520 nm, Auto Cutoff 435 nm and 515 nm, PMT sensitivity high, 6 reads per well Inhibition of JAK activity is calculated as the percent phosphorylation of substrate in the presence of inhibitor compared to the percent phosphorylation of substrate in the absence of inhibitor. IC50's were derived using Xlfit 4.3 (IDBS, UK), 4 parameter logistic model 205: Y=(A+((B−A)/(1+((C/x)^D)))).

The next assay addresses JAK1 (Homo sapiens (Human), UniProt P23458). Description: Purified kinase assay (Z'-LYTE), JAK1. The conditions noted are these: Table 1; read-out: JAK1 IC50. The procedure:
as §1, §2

For the next assay, the target named is JAK2 (Homo sapiens (Human), UniProt O60674). The assay is described as follows: Purified kinase assay (Z'-LYTE), JAK2. To be noted: Table 1; read-out: JAK2 IC50. The procedure: as §1, §2
Sequence of JAK2 (O60674 849-1124): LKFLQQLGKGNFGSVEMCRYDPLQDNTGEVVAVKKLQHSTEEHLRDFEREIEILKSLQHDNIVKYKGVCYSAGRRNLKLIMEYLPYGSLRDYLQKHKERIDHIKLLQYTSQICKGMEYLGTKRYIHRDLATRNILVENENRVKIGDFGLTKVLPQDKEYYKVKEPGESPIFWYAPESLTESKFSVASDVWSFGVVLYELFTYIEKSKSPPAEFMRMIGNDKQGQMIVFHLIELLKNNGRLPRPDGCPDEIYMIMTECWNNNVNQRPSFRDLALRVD

Sequence of JAK1 (P23458 875-1153): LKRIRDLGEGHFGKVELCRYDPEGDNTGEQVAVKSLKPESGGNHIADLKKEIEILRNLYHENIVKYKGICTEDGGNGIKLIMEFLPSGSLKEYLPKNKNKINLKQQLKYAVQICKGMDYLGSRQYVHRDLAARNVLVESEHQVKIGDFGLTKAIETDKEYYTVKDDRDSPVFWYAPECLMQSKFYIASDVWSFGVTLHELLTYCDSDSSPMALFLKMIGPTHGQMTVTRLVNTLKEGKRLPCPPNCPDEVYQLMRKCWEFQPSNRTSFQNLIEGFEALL
Sequence of JAK3 (P52333 822-1111): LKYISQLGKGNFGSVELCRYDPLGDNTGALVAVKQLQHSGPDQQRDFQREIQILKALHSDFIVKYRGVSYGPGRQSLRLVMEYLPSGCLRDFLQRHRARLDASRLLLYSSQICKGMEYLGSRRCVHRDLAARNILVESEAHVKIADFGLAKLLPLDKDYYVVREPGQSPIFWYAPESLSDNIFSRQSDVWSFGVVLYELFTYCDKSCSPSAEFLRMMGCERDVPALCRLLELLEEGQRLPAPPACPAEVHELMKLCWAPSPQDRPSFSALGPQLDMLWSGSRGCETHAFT

On to `CC(=O)N1CCN(c2ccc(Nc3cc(NCc4cccc(Cl)c4)c(C(N)=O)nn3)cc2)CC1` [Compound 46], for which the figures for the IC50 at JAK3, on JAK1 and at JAK2 were 10 to 100 nM, 100 to 1000 nM and 100 to 1000 nM, respectively.
Consider `CC(=O)N1CCN(c2ccc(Nc3cc(NCc4cccc(C)c4)c(C(N)=O)nn3)cc2)CC1` [Compound 47], for which the results for the IC50 at JAK3, at JAK1 and on JAK2 were 10 to 100 nM, over 1000 nM and 100 to 1000 nM, respectively.
For `NC(=O)c1nnc(Nc2cccc(CN3CCOCC3)c2)cc1NCc1cccc(F)c1` [Compound 48] the same measures were 10 to 100 nM, over 1000 nM and 100 to 1000 nM.
With `CC(=O)N1CCN(c2ccc(Nc3cc(NCc4cccc(F)c4)c(C(N)=O)nn3)cn2)CC1` [Compound 49], the IC50 on JAK3 was 100 to 1000 nM; at JAK1, over 1000 nM; at JAK2, over 1000 nM.
In the case of `NC(=O)c1nnc(Nc2ccc(N3CCNCC3)nc2)cc1NCc1cccc(F)c1` [Compound 50], the IC50 at JAK3 is 100 to 1000 nM; on JAK1 it was over 1000 nM; at JAK2 it was over 1000 nM.
Consider `NC(=O)c1nnc(Nc2ccc(OCCN3CCCC3)cc2)cc1NCc1cccc(F)c1` [Compound 51], for which the figures for the IC50 on JAK3, at JAK1 and at JAK2 were 10 to 100 nM, over 1000 nM and 100 to 1000 nM, respectively.
For `NC(=O)c1nnc(Nc2ccc(C(=O)N3CCCC3)cc2)cc1NCc1cccc(F)c1` [Compound 52] the same measures were 10 to 100 nM, over 1000 nM and 100 to 1000 nM.
Turning to `COc1cc(Nc2cc(NCc3cccc(F)c3)c(C(N)=O)nn2)ccc1C(=O)N1CCCC1` [Compound 53], the IC50 is 10 to 100 nM on JAK3, over 1000 nM at JAK1 and 100 to 1000 nM at JAK2.
For `Cc1cc(Nc2cc(NCc3cccc(F)c3)c(C(N)=O)nn2)ccc1N1CCOCC1` [Compound 54], the IC50 was 10 to 100 nM on JAK3, over 1000 nM at JAK1 and over 1000 nM on JAK2.
As for `NC(=O)c1nnc(Nc2ccc(C(=O)N3CCCC3)c(Cl)c2)cc1NCc1cccc(F)c1` [Compound 55], the IC50 on JAK3 is 10 to 100 nM; on JAK1 it was over 1000 nM; on JAK2, 100 to 1000 nM.
With `NC(=O)c1nnc(Nc2cccc(N3CCOCC3)n2)cc1NCc1cccc(F)c1` [Compound 62], the IC50 on JAK3, on JAK1 and on JAK2 was over 1000 nM throughout.
Turning to `CC(=O)N1CCN(c2ccc(Nc3cc(NCC4CCNCC4)c(C(N)=O)nn3)cc2)CC1` [Compound 63], the IC50 on JAK3 was 100 to 1000 nM; on JAK1, over 1000 nM; at JAK2 it was over 1000 nM.
In the case of `NC(=O)c1nnc(Nc2ccc(N3CCOCC3)cn2)cc1NCc1cccc(F)c1` [Compound 64], the IC50 on JAK3 is 1 to 10 nM; on JAK1, over 1000 nM; at JAK2, 10 to 100 nM.
Take `Cn1ccc(Nc2cc(NCc3cccc(F)c3)c(C(N)=O)nn2)n1` [Compound 67]: the IC50 at JAK3 is 10 to 100 nM; on JAK1, over 1000 nM; on JAK2, 100 to 1000 nM.
For `CC(=O)N1CCN(c2ccc(Nc3cc(NCc4cccc(-n5ccnc5)c4)c(C(N)=O)nn3)cc2)CC1` [Compound 68], the IC50 was 10 to 100 nM on JAK3, over 1000 nM on JAK1 and over 1000 nM on JAK2.
On to `CC(=O)N1CCN(c2ccc(Nc3cc(NCc4cccc(-c5ccncc5)c4)c(C(N)=O)nn3)cc2)CC1` [Compound 69], for which the IC50 was 10 to 100 nM on JAK3, over 1000 nM at JAK1 and over 1000 nM on JAK2.
As to `CC(=O)N1CCN(c2ccc(Nc3cc(NCc4cccc(-c5cccnc5)c4)c(C(N)=O)nn3)cc2)CC1` [Compound 70], the IC50 was 10 to 100 nM at JAK3, over 1000 nM on JAK1 and 100 to 1000 nM on JAK2.
Take `CC(=O)N1CCN(c2ccc(Nc3cc(NCc4cccc(-c5ccccn5)c4)c(C(N)=O)nn3)cc2)CC1` [Compound 71]: the IC50 on JAK3 is 100 to 1000 nM; on JAK1 it was over 1000 nM; on JAK2, over 1000 nM.
Regarding `CC(=O)N1CCN(c2ccc(Nc3cc(NCc4cccc(C#N)c4)c(C(N)=O)nn3)cc2)CC1` [Compound 72], the IC50 on JAK3 was 10 to 100 nM; on JAK1, over 1000 nM; on JAK2, 100 to 1000 nM.
For the compound `NC(=O)c1nnc(Nc2ccc(C(=O)N3CCCC3)cn2)cc1NCc1cccc(F)c1` [Compound 73], the IC50 on JAK3 was 1 to 10 nM; at JAK1, 100 to 1000 nM; at JAK2 it was 10 to 100 nM.
On to `CC(=O)N1CCN(c2ccc(Nc3cc(N[C@H](C)C(C)C)c(C(N)=O)nn3)cc2)CC1` [Compound 75], for which the values for the IC50 at JAK3, at JAK1 and at JAK2 were 10 to 100 nM, 100 to 1000 nM and 10 to 100 nM, respectively.
`CC(=O)N1CCN(c2ccc(Nc3cc(NCc4ccc(Cl)s4)c(C(N)=O)nn3)cc2)CC1` [Compound 76]: the figures for the IC50 on JAK3, on JAK1 and on JAK2 were 10 to 100 nM, over 1000 nM and over 1000 nM, respectively.
`NC(=O)c1nnc(Nc2ncc(C(=O)N3CCOCC3)s2)cc1NCc1cccc(F)c1` [Compound 77]: the IC50 on JAK3 was 10 to 100 nM; on JAK1, over 1000 nM; on JAK2 it was over 1000 nM.
In the case of `CC(=O)N1CCN(c2ccc(Nc3cc(NCc4ccccn4)c(C(N)=O)nn3)cc2)CC1` [Compound 78], the IC50 was 100 to 1000 nM on JAK3, over 1000 nM on JAK1 and over 1000 nM at JAK2.
Take `CC(=O)N1CCN(c2ccc(Nc3cc(NCc4cccnc4)c(C(N)=O)nn3)cc2)CC1` [Compound 79]: the values for the IC50 on JAK3, at JAK1 and at JAK2 were 100 to 1000 nM, over 1000 nM and over 1000 nM, respectively.
On to `NC(=O)c1nnc(Nc2ccc(C(=O)N3CCOCC3)cc2)cc1NCc1cccc(F)c1` [Compound 80], for which the IC50 was 10 to 100 nM at JAK3, over 1000 nM at JAK1 and 100 to 1000 nM on JAK2.
For `CC(=O)N1CCN(C(=O)c2ccc(Nc3cc(NCc4cccc(F)c4)c(C(N)=O)nn3)cc2)CC1` [Compound 81] the same measures were 10 to 100 nM, over 1000 nM and 100 to 1000 nM.
For `NC(=O)c1nnc(Nc2ccc(C(=O)N3CCCC3)cc2)cc1NCc1cc(F)cc(F)c1` [Compound 82] the same measures were 1 to 10 nM, 100 to 1000 nM and 100 to 1000 nM.
Taken in the same sequence, the figures for `NC(=O)c1nnc(Nc2ccc(C(=O)N3CCCC3)cc2)cc1NCc1cccc(F)c1F` [Compound 83] were 1 to 10 nM, over 1000 nM and 100 to 1000 nM.
On to `CS(=O)(=O)c1ccc(Nc2cc(NCc3cccc(F)c3)c(C(N)=O)nn2)cc1` [Compound 84], for which the IC50 was 100 to 1000 nM on JAK3, over 1000 nM at JAK1 and over 1000 nM at JAK2.
In the case of `CS(=O)(=O)Cc1ccc(Nc2cc(NCc3cccc(F)c3)c(C(N)=O)nn2)cc1` [Compound 85], the IC50 on JAK3 fell in the range of 10 to 100 nM; on JAK1, 100 to 1000 nM; on JAK2, 100 to 1000 nM.
Regarding `CN(C)C(=O)C1CCN(c2ccc(Nc3cc(NCc4ccccc4F)c(C(N)=O)nn3)cc2)CC1` [Compound 86], the IC50 was 10 to 100 nM on JAK3, over 1000 nM on JAK1 and 100 to 1000 nM on JAK2.
Taken in the same sequence, the figures for `CS(=O)(=O)Cc1ccc(Nc2cc(NCc3c(F)cccc3F)c(C(N)=O)nn2)cc1` [Compound 87] were 1 to 10 nM, 100 to 1000 nM and 100 to 1000 nM.
For `CS(=O)(=O)Cc1ccc(Nc2cc(NCc3cc(F)ccc3F)c(C(N)=O)nn2)cc1` [Compound 88] the same measures were 1 to 10 nM, 100 to 1000 nM and 100 to 1000 nM.
Consider `CN(C)C(=O)C1CCN(c2ccc(Nc3cc(NCc4cccc(F)c4)c(C(N)=O)nn3)cc2)CC1` [Compound 90], for which the IC50 is 10 to 100 nM on JAK3, over 1000 nM at JAK1 and 100 to 1000 nM on JAK2.
For `CS(=O)(=O)Cc1cccc(Nc2cc(NCc3cccc(F)c3)c(C(N)=O)nn2)c1` [Compound 91] the same measures were 10 to 100 nM, over 1000 nM and over 1000 nM.
Taken in the same sequence, the figures for `CC(=O)N1CCN(c2ccc(Nc3cc(NC4CCN(c5ccc(C#N)cn5)CC4)c(C(N)=O)nn3)cc2)CC1` [Compound 92] were 10 to 100 nM, 10 to 100 nM and 10 to 100 nM.

The values above are taken from patent publication US9834548B2, “Pyridazine compounds as JAK inhibitors” (Portola Pharmaceuticals, Inc., priority 2014, dated 2017).
